Laboratory results from patent EP0603160A2, “Compositions for in-situ active compound assembly” (SCRIPPS CLINIC AND RESEARCH FOUNDATION, priority 1986, dated 1988).
Read-outs that look alike come from different tables or passages of the source.

How the values were obtained:
Ox blood erythrocytes = experiment: Erythrocyte killing with or without 1% serum, light scattering; format: cell-based; settings: for mortality at 1.4 µM / mortality at 2 µM / mortality at 2.8 µM / mortality at 4 µM / mortality at 5.6 µM / mortality at 8 µM / mortality at 11.2 µM / mortality at 16 µM / mortality at 22.4 µM / mortality at 32 µM / mortality at 1 µM: Bos taurus, Erythrocyte, 1 h; for mortality at 1.4 µM: DIOG 1.4 µM; for mortality at 2.8 µM: DIOG 2.8 µM; for mortality at 4 µM: DIOG 4 µM; for mortality at 5.6 µM: DIOG 5.6 µM; for mortality at 11.2 µM: DIOG 11.2 µM; for mortality at 22.4 µM: DIOG 22.4 µM; for mortality at 32 µM: DIOG 32 µM; for mortality at 1 µM: DIOG 1 µM
Experimental: Ox blood erythrocytes were incubated for one hour in PBS at pH 6.6 in the presence or absence of 1% serum at 37°C. […] However, at 4-16 µM DIOG, the percentage of cells killed increased from 4.3 to 60.9. On the other hand, in the absence of serum, 7.2.% cells were killed even without the addition of DIOG, and a steady increase in killing occurred as the DIOG concentration increased, reaching 100% of cells killed at 8 µM.
The AOG concentration was maintained at a high level (448 µM) and the decanal concentration varied from 0-16 µM corresponding the previous DIOG concentration range. In this protocol, similar results were obtained for cells incubated in the absence of serum, but in the presence of 1% serum the curve was slightly displaced so that the cells appeared more protected as shown in Table 4.

human erythrocytes = experiment: Erythrocyte lysis (light scattering, hemoglobin release, cell counts); format: cell-based
Experimental: The putative product shown in Reaction Scheme 1 is evidently cytotoxic, since a suspension of human erythrocytes in a solution containing both CHD and DAPG in phosphate buffered saline is 95% lysed or aggregated within 1-14 hours under physiological conditions (the precise time depending on the concentrations) whereas erythrocytes are stable for at least 24 hours in plain PBS, and also in solutions containing either DAPG or CHD alone. In addition, when erythrocytes are incubated with mixtures of CHD and DAPG, a substantial induction period is observed during which no lysis or aggregation occurs, due to the time lag in formation of the cytotoxic material. Whether lysis or aggregation results depends on relative concentration; excess CHD results in lysis, equimolar concentrations in aggregation. The cytotoxicity may be due to the formation of the polycation, analogous to the known antitumor activity of poly-(L-lysine); Arnold, L. J. Proc. Natl Acad Sci (supra).
For erythrocytes blood was collected and stored with KEDTA at 4°C and erythrocytes prepared within 48 hours by centrifuging three times in phosphate-buffered saline (PBS, pH 7.4). Suspensions containing 3 x 10⁷ cells/ml were prepared in PBS containing 1% EtOH, but no […] cations, and incubated at 37°C with the compounds or mixtures to be tested.
On the other hand, while a mixture of 28 µM AOG and 28 µM decanal (reagent grade, Aldrich Chemical Co.) results in less than 10% lysis within the same 20 minute time frame, as the time of incubation increases, lysis increases also, as indicated by hemoglobin release measured by (1) light absorption of the supernatant at 400 nm. (2) decrease of light scattering by the cells at 700 nm, and (3) direct cell counts using a microscope. […] Suspensions of 3.5 x 10⁷ cells/ml prepared as above in PBS (1% EtOH, no divalent cations, pH 7.4) were incubated at 37°C, and cell lysis was followed by observing the decrease in absorbance at 700 nm. For 0% lysis, A₇₀₀ is 1.0; 0.2 for 100% lysis).
The curves were calculated using a nonlinear least squares fitting algorithm (Arc, H, et al, Statistical Methods (1970) Harper & Row, pp. 100-111) and based on a modified Hill equation (Cantor, C.R. et al, supra) wherein percent hemolysis is calculated as 100% divided by (1+(K/C))^α [formula] . In this equation, K is the median effect concentration, C is the concentration of DIOG (or of decanal and AOG), and α is the Hill constant.

[1] = pH 6.6, similar experiment (Table 3), read-out: % Cells Killed (0% Serum)
[2] = pH 6.6, similar experiment (Table 3), read-out: % Cells Killed (1% Serum)
[3] = one hour, PBS pH 6.6, 37°C (second Table 2), read-out: % cells killed (0% serum)
[4] = one hour, PBS pH 6.6, 37°C (second Table 2), read-out: % cells killed (1% serum)

Structure (SMILES): CCCCCCCCCC=NNC(=N)NCCCCCCCC [DIOG, N-1-decylidenimino-N'-octylguanidine]
- mortality at 1.4 µM (Ox blood erythrocytes; [1]): 1.3%
- mortality at 1.4 µM (Ox blood erythrocytes; [2]): 0%
- mortality at 2 µM (Ox blood erythrocytes; pH 6.6, DIOG 2 µM, similar experiment (Table 3), read-out: % Cells Killed (0% Serum)): 17.9%
- mortality at 2 µM (Ox blood erythrocytes; pH 6.6, DIOG 2 µM, similar experiment (Table 3), read-out: % Cells Killed (1% Serum)): 5.1%
- mortality at 2.8 µM (Ox blood erythrocytes; [1]): 17.9%
- mortality at 2.8 µM (Ox blood erythrocytes; [2]): 9%
- mortality at 4 µM (Ox blood erythrocytes; [1]): 48.7%
- mortality at 4 µM (Ox blood erythrocytes; [2]): 11.5%
- mortality at 5.6 µM (Ox blood erythrocytes; [1]): 91%
- mortality at 5.6 µM (Ox blood erythrocytes; [2]): 16.7%
- mortality at 8 µM (Ox blood erythrocytes; pH 6.6, DIOG 8 µM, similar experiment (Table 3), read-out: % Cells Killed (0% Serum)): 100%
- mortality at 8 µM (Ox blood erythrocytes; pH 6.6, DIOG 8 µM, similar experiment (Table 3), read-out: % Cells Killed (1% Serum)): 35.9%
- mortality at 11.2 µM (Ox blood erythrocytes; [1]): 100%
- mortality at 11.2 µM (Ox blood erythrocytes; [2]): 37.2%
- mortality at 16 µM (Ox blood erythrocytes; pH 6.6, DIOG 16 µM, similar experiment (Table 3), read-out: % Cells Killed (0% Serum)): 100%
- mortality at 16 µM (Ox blood erythrocytes; pH 6.6, DIOG 16 µM, similar experiment (Table 3), read-out: % Cells Killed (1% Serum)): 51.3%
- mortality at 22.4 µM (Ox blood erythrocytes; [1]): 100%
- mortality at 22.4 µM (Ox blood erythrocytes; [2]): 100%
- mortality at 32 µM (Ox blood erythrocytes; [1]): 100%
- mortality at 32 µM (Ox blood erythrocytes; [2]): 98.7%
- mortality at 1 µM (Ox blood erythrocytes; [3]): 10.1%
- mortality at 1 µM (Ox blood erythrocytes; [4]): 0%
- mortality at 2 µM (Ox blood erythrocytes; DIOG 2 µM, one hour, PBS pH 6.6, 37°C (second Table 2), read-out: % cells killed (0% serum)): 29%
- mortality at 2 µM (Ox blood erythrocytes; DIOG 2 µM, one hour, PBS pH 6.6, 37°C (second Table 2), read-out: % cells killed (1% serum)): 0%
- mortality at 4 µM (Ox blood erythrocytes; [3]): 47.8%
- mortality at 4 µM (Ox blood erythrocytes; [4]): 4.3%
- mortality at 8 µM (Ox blood erythrocytes; DIOG 8 µM, one hour, PBS pH 6.6, 37°C (second Table 2), read-out: % cells killed (0% serum)): 100%
- mortality at 8 µM (Ox blood erythrocytes; DIOG 8 µM, one hour, PBS pH 6.6, 37°C (second Table 2), read-out: % cells killed (1% serum)): 29%
- mortality at 16 µM (Ox blood erythrocytes; DIOG 16µM, one hour, PBS pH 6.6, 37°C (second Table 2), read-out: % cells killed (0% serum)): 100%
- mortality at 16 µM (Ox blood erythrocytes; DIOG 16µM, one hour, PBS pH 6.6, 37°C (second Table 2), read-out: % cells killed (1% serum)): 60.9%
- % cells killed (1% serum) (Ox blood erythrocytes; DIOG 2 µM, one hour, PBS pH 6.6, 37°C (second Table 2)): no cell killing
- % cells killed (0% serum) (Ox blood erythrocytes; DIOG 8 µM, one hour, PBS pH 6.6, 37°C (second Table 2), 60 min): 100%
- lysis (human erythrocytes; 14 µM DIOG previously prepared, in 20 minutes, 37°C): complete lysis
- EC50 (human erythrocytes; Erythrocyte, hemoglobin release from human erythrocytes, absorption at 400 nm, modified Hill equation fit, Figure 4, read-out: median effect concentration): 6.2 µM
